In article PMC11109252, “Synthetic aporphine alkaloids are potential therapeutics for Leigh syndrome” (Scientific Reports, 2024):
“Also recorded” adds a separate entry of the source.

Tests used:
[1] = tested on: LS patient-derived skin fibroblasts; assay: Mitochondrial ATP production capacity (extracellular flux analyzer, OCR); type: cell-based, human; conditions: 100 nM compound
Text: The extracellular flux analyzer Seahorse XFe96 (Agilent Technologies, Santa Clara, CA, USA) was used to evaluate the mitochondrial function. The extracellular flux analyzer measures the oxygen consumption rate (OCR) in the mitochondria during ATP synthesis and can also evaluate the intracellular mitochondrial function. The endpoints were the basal OCR, ATP-linked OCR, maximal OCR, and spare capacity, which are key indicators of the mitochondrial function in assays using living cells. Each indicator was calculated by continuously adding ATP synthase inhibitors (oligomycin, rotenone and antimycin A) and deconjugating agents (carbonyl cyanide-p-trifluoromethoxyphenylhydrazone [FCCP]) during the measurement (Fig. 6). […] The OCR was measured over time by adding oligomycin (2 μM concentration) 20 min after drug addition, FCCP (2 μM concentration) 50 min later, and rotenone and antimycin A (0.5 μM concentration) 80 min later.

[2] = tested on: GDF-15; assay: GDF-15 levels in the cell supernatant (ELISA); type: cell-based, human; conditions: 24 h after co-administration with RSL3, compared to RSL3-only
Experimental: GDF-15 is a biomarker that is elevated in the blood of patients with mitochondrial diseases and is used for the diagnosis of mitochondrial diseases and determination of therapeutic efficacy[26],[36]. […] As previously reported, GDF-15 levels were measured by an enzyme-linked immuno sorbent assay (ELISA) using the Quantikin Human GDF-15 ELISA Kit (R&D Systems, Minneapolis, MN, USA). Samples were obtained from anti-RSL3-induced cell death assays with candidate compounds (D31, D55, and D40), and cell supernatants 24 h after reagent addition were used for the assay. Measured values were calculated with reference to internal standards and compared to GDF-15 values.

[3] = tested on: LS patient-derived skin fibroblasts; conditions: cited from earlier work
[4] = tested on: GDF-15; conditions: cited from earlier work
[5] = cited from earlier work
[6] = tested on: LS patient-derived skin fibroblasts; assay: Anti-RSL3-induced cell death activity assay; type: cell-based; conditions: Homo sapiens, Skin fibroblast, read-out: Anti-RSL3-induced cell death effect EC50
Experimental: RSL3 is a glutathione peroxidase 4 (GPx4) inhibitor that specifically induces ferroptosis. Ferroptosis is an iron-dependent non-apoptotic type of cell death caused by lipid peroxidation.
After 24 h of incubation, the reagents were added to the RSL3 (−) derivative (−) and RSL3 ( +) derivative ( +) groups. […] The final concentration of RSL3 was 50–200 nM that would cause approximately 80–90% cell death after 24 h of incubation. The percentage of viable cells was measured 24 h after addition of each reagent.

[7] = tested on: LS patient-derived skin fibroblasts; assay: Anti-BSO-induced cell death activity assay; conditions: for EC50: viable cells 48 h after addition
[8] = target: T1, dopamine D2 receptors (Homo sapiens, UniProt P14416); assay: Dopamine D2 receptor agonist assay (GeneBLAzer D2-Gqo5-NFAT-bla CHO-K1 reporter); type: cell-based; conditions: CHO cells stably expressing dopamine D2 receptors; NA: no activity; read-out: Dopamine D2 receptor agonist (DA) activity EC50
T1 construct: host or cells: CHO-K1 (GeneBLAzer D2-Gqo5-NFAT-bla)
Experimental: CHO-K1 cells were spread in 384-well plates at 10,000 cells/32 μL/well, taking care not to touch the bottom of the wells. Cell-free-wells were injected with the same volume (32 μL) of assay medium. The plates were then incubated in a CO2 incubator for 16–20 h. […] The diluted solution (8 μL/well) was added to 384-well plates seeded with CHO-K1 cells and incubated in a CO2 incubator for 5 h. […] The addition of the drug induces D2 receptor activation, which activates signaling pathways and transcription factors, resulting in the expression of a reporter gene (β-lactamase) and cleavage of the fluorescence resonance energy transfer (FRET) substrate, causing the fluorescence to change from green to blue.

[9] = Homo sapiens, Skin fibroblast, 48 h, read-out: Anti-BSO-induced cell death effect EC50, co-added with BSO at a concentration giving 10%-20% cell viability

T1 sequence (P14416 whole entry): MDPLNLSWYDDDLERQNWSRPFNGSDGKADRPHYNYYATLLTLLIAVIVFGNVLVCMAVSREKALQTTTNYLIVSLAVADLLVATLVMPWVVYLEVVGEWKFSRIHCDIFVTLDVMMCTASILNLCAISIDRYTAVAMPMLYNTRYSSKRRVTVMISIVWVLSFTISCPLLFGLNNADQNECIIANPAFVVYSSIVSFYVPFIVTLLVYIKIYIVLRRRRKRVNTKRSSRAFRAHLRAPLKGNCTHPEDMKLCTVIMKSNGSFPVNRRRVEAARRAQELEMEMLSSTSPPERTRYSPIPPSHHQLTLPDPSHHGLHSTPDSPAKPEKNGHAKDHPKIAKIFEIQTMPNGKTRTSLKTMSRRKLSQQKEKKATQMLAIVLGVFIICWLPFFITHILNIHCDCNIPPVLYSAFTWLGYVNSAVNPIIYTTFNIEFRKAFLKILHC

Row | Compound | Enhancement of mitochondrial ATP production [1] | GDF-15 elevation in cell supernatant [2] | ATP production in LS patient-derived skin fibroblasts [3] | GDF-15 elevation in culture supernatant [4] | Concentrations in the brain versus plasma [5] | EC50 ([6]; 24 h) [nM] | Anti-BSO cell death effect retained (same as apomorphine) ([7]; comparison of D29, D30, D31) | EC50 [7, 9] [nM] | EC50 ([7]; read-out: Anti-BSO-induced cell death effect EC50, co-added with BSO at a concentration giving 10%-20% cell viability) [nM] | EC50 [8] [nM] | EC50 ([6]; co-added with RSL3 at a concentration giving 10%-20% cell viability, viable cells 24 h after addition) [nM]
1 | CN1CCc2cccc3c2[C@H]1Cc1ccc(O)c(O)c1-3 [Apo, (9R)-10-methyl-10-azatetracyclo[7.7.1.0²,⁷.0¹³,¹⁷]heptadeca-1(17),2,4,6,13,15-hexaene-3,4-diol] | No significant enhancement | significant decrease | increase ATP production | inhibits GDF-15 elevation | up to three-fold higher |  |  |  |  |  | 
2 | COc1ccc2c(c1O)-c1cccc3c1[C@@H](C2)N(C)CC3 [D31, (9R)-4-methoxy-10-methyl-10-azatetracyclo[7.7.1.0²,⁷.0¹³,¹⁷]heptadeca-1(17),2,4,6,13,15-hexaen-3-ol] | showed any ability to enhance mitochondrial ATP production; also recorded: No significant enhancement | suppressed GDF-15 elevation; also recorded: significant decrease |  |  |  | 27 | retained its anti-BSO cell death effect; also recorded: the only compound with the same anti-BSO-induced cell death activity as apomorphine |  |  |  | 
3 | CCCOc1ccc2c(c1O)-c1cccc3c1[C@@H](C2)N(C)CC3 [D40, (9R)-10-methyl-4-propoxy-10-azatetracyclo[7.7.1.0²,⁷.0¹³,¹⁷]heptadeca-1(17),2,4,6,13,15-hexaen-3-ol] | showed any ability to enhance mitochondrial ATP production; also recorded: No significant enhancement | suppressed GDF-15 elevation; also recorded: significant decrease |  |  |  | 231 |  | < 100 | 55 |  | 
4 | CN1CCc2cccc3c2[C@H]1Cc1ccc(-c2ccccc2)c(O)c1-3 [D45, (9R)-10-methyl-4-phenyl-10-azatetracyclo[7.7.1.0²,⁷.0¹³,¹⁷]heptadeca-1(17),2,4,6,13,15-hexaen-3-ol] |  |  |  |  |  |  |  | < 100 |  | 2630 | 745
5 | CCOc1ccc2c(c1O)-c1cccc3c1[C@@H](C2)N(C)CC3 [D55, (9R)-4-ethoxy-10-methyl-10-azatetracyclo[7.7.1.0²,⁷.0¹³,¹⁷]heptadeca-1(17),2,4,6,13,15-hexaen-3-ol] | showed any ability to enhance mitochondrial ATP production; also recorded: No significant enhancement | suppressed GDF-15 elevation; also recorded: significant decrease |  |  |  | 21 |  |  |  |  | 
